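Interpolation was linear, between the two tested concentrations surrounding the appropriate level; five concentrations were tested over 48 hours in 96-well plates. GI50: concentration for 50% inhibition of growth. TGI is the concentration that stops growth completely.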

In the assay the test system is MDA-MB-468 breast. Put plainly: NCI tumour cell line growth inhibition, 48 h.
For the molecule `C#Cc1cccc(Oc2ccc(NC(=O)CCl)cc2)c1`, the GI50 is 77.9 µM and the TGI was greater than 82.5 µM.
Consider `CCCCCCCCCCCCCC(=O)C(C)N` (configuration not stated), for which the GI50 was 3.31 µM and the TGI came out at 9.51 µM.
For the molecule `O=C1C(=O)c2ccccc2C(O)=C1CC=C(Cl)Cl`, the GI50 is 15.8 µM and the TGI was 59 µM.
In the same order, the values of `O=C(O)c1cc(Cc2ccc(O)c(C(=O)O)c2)ccc1O` (tested in a mixture with another compound) are 2.57 µM and 14.4 µM.
Take `CS(=O)(=O)CCn1c(=O)c(Oc2ccc(F)cc2F)cc2cnc(NC3CCOCC3)nc21`: the GI50 is greater than 25 µM and the TGI was greater than 25 µM.
For the molecule `Cc1cc(C)n(C(=O)c2nn(-c3ccc(Cl)cc3)cc2O)n1`, the GI50 was 8.9 µM and the TGI is greater than 100 µM.
On the same counts, the results for `CCO/C=N/C1=C(C#N)C(c2ccc(F)cc2)c2sc3c(C)cccc3c2O1` (configuration not stated) are 0.504 µM and 17.1 µM.
`CN(C)CCCOc1c2ccccc2nc2c1oc1ccc(Cl)cc12`: the GI50 is 2.95 µM and the TGI is 8.8 µM.
Turning to `[C-]#[N+][C@]12C(=O)[C@H](CCC1(C)C)C(C)(C)[C@H]1C(=O)N(C)c3cccc2c31`, the GI50 was 4.02 µM and the TGI was greater than 100 µM.
On the same counts, the results for `O=C(Nc1ccccc1O)c1ccc(CNC(=O)c2sccc2Nc2ccnc(C(F)(F)F)c2)cc1` are 2.01 µM and 5.9 µM.
Turning to `Cc1nc2cc(Nc3nc(Nc4ccc(F)cc4)nc(N4CCN(C)CC4)n3)ccc2n1Cc1ccccc1`, the GI50 was 1.43 µM and the TGI is 3.44 µM.
On the same counts, the results for `CN1CCN(c2ccc(NC3=C(Cl)C(=O)c4ncccc4C3=O)cc2C#N)CC1` are 0.414 µM and 1.9 µM.
In the same order, the values of `COc1ccc(-c2nnc(N3CCN(C(=O)CN4CCN(c5ccc(Cl)cc5)CC4)CC3)nc2-c2ccc(OC)cc2)cc1` are 17.9 µM and 48.3 µM.
In the same order, the values of `Cc1ccc2c(c1)O/C(=C\c1ccc([N+](=O)[O-])o1)C2=O` are 1.56 µM and 3.5 µM.
`Cc1ccc(C2CC(c3ccc(Nc4nc(NCCO)nc(Nc5ccc(Cl)cc5)n4)cc3)=Nc3c(N)nc(N)nc3N2)cc1` (configuration not stated): the GI50 was 1.65 µM and the TGI stood at 3.17 µM.
Turning to `COc1cc(C2=NN(c3ccc(S(N)(=O)=O)cc3)C(c3ccc(Cl)cc3)C2)cc(OC)c1OC` (configuration not stated), the GI50 is 2.88 µM and the TGI was greater than 100 µM.
In the same order, the values of `C1=C(c2ccccc2)C(c2ccc(OCCN3CCCCC3)cc2)Oc2ccccc21` (configuration not stated) are 1.54 µM and 3 µM.
In the same order, the values of `CNC(=O)OC1C(O[C@H]2C[C@H]3[C@@H]4CC=C5C[C@@H](O)CC[C@]5(C)[C@H]4CC[C@]3(C)[C@H]2[C@H](C)C(=O)CCC(C)C)OCC(O)C1OC1OCC(O)C(O)C1OC(=O)c1ccc(OC)cc1` (some centres not stated) are 0.027 µM and 2.96 µM.
On to `COc1ccc(/C=C/C(=O)c2cc3c(N)c(C(=O)Nc4ccccc4C)sc3nc2C)cc1`, for which the GI50 is 0.167 µM and the TGI was greater than 50 µM.
On the same counts, the results for `Nc1ccc2ccc(NS(=O)(=O)N3CCCCC3)cc2c1` are 0.194 µM and greater than 100 µM.
On the same counts, the results for `NC(=S)N/N=C\c1nccc2c(N)cccc12` are 0.226 µM and 0.717 µM.
With `Cc1cccc2c1O/C(=C\c1ccc([N+](=O)[O-])o1)C2=O`, the GI50 is 1.29 µM and the TGI was determined as 2.99 µM.
As for `CCCCCCNc1nc(N2CCOCC2)c2[nH]c(NCCCCCC)nc2n1`, the GI50 was 1.38 µM and the TGI is 2.7 µM.
As for `Cc1cc2c(-c3ccc(NC(=O)[C@H](N)CC(C)(C)C)cc3C)ccnc2[nH]1`, the GI50 was 2.73 µM and the TGI was 10.6 µM.
Turning to `O=S(=O)(NCCNc1cc(-c2cn(-c3ccccc3)nc2-c2cccc(O)c2)ccn1)c1ccc(Cl)cc1`, the GI50 was 2.78 µM and the TGI turned out to be 7.66 µM.
As for `CC(C)(C)OC(=O)CN1CCc2c(sc3ncnc(N/N=C/c4cccc5ccccc45)c23)C1`, the GI50 was 3.9 µM and the TGI stood at 16.3 µM.
On the same counts, the results for `CC(CN1CCN(CC(C)Nc2ccnc3cc(Cl)ccc23)CC1)Nc1ccnc2cc(Cl)ccc12` (configuration not stated) are 2.97 µM and 9.55 µM.
As to `C(=C\c1nccc2c1[nH]c1ccccc12)/c1ccccc1`, the GI50 is 2.04 µM and the TGI was 7.91 µM.
For the molecule `CCN(CC)CCOc1ccc2c(c1)C(=O)c1cc(OCCN(CC)CC)ccc1-2`, the GI50 was 2.64 µM and the TGI was 8.53 µM.
With `O=C(CNc1ncco1)Nc1ccc(S(=O)(=O)c2ccc(NC(=O)CNc3ncco3)cc2)cc1`, the GI50 was 1.44 µM and the TGI was 3.16 µM.
With `CCOC(=O)N[C@H]1CCc2c(Br)c(OC)c(OC)c(OC)c2-c2ccc(SC)c(=O)cc21`, the GI50 was less than 0.01 µM and the TGI came to 16.8 µM.
In the same order, the values of `C/C1=C/C(=O)O[C@@H]2C[C@@H](CC[C@H](C)/C=C\C=C\CC1)O[C@@](OCCc1ccccc1)([C@@H]1CSC(=O)N1)C2` are 0.0292 µM and 0.135 µM.
With `COc1cc(NCc2ccccc2O)c2ncccc2c1`, the GI50 was 15.4 µM and the TGI was 50.4 µM.
On the same counts, the results for `Oc1c(I)cc(-c2nc3ccccc3s2)cc1CN(Cc1ccccn1)Cc1ccccn1` are 0.531 µM and 5.25 µM.
With `Cc1cc(C)cc(Nc2ccc([N+](=O)[O-])c(NCCN3CCOCC3)n2)c1`, the GI50 was 0.000419 µM.
`COc1cc(-c2cc(/C=C3\C(=O)Nc4ccccc43)[nH]n2)cc(OC)c1OC`: the GI50 is 2.88 µM and the TGI turned out to be 13.4 µM.
As for `COc1ccc2c(c1)cn1c3ccc(O)cc3[nH]c(=O)c21`, the GI50 was 0.236 µM and the TGI is 1.09 µM.
With `C[C@@H](Oc1ccc2[nH]nc(/C=C/c3cnn(CCO)c3)c2c1)c1c(Cl)cncc1Cl`, the GI50 was 1.37 µM and the TGI came out at 3.11 µM.
For the molecule `COc1ccc(CC(NC(=O)[C@H](C)NC(=O)CN2CCOCC2)C(=O)N[C@@H](Cc2ccccc2)C(=O)[C@@]2(C)CO2)cc1` (some centres not stated), the GI50 is 0.174 µM and the TGI was 0.595 µM.

Source of the values: PubChem BioAssay (NCI).
